Measurements from PMC11995724, “Antibiotic target discovery by integrated phenotypic and activity-based profiling of electrophilic fragments” (Cell chemical biology, 2025).

Assay: in vitro
Conditions: human, hek293t cells

| Compound | viability at 48 h, 25 µM |
| --- | --- |
| N#CC(=Cc1ccsc1)C(=O)Nc1cccc2ccccc12 [9-M09, 2-cyano-N-(naphthalen-1-yl)-3-(thiophen-3-yl)prop-2-enamide] | 120% |
| Cn1cc(C=C(C#N)C(=O)Nc2ccc(Oc3ccccc3)cc2)cn1 [9-M10, 2-cyano-3-(1-methyl-1H-pyrazol-4-yl)-N-(4-phenoxyphenyl)prop-2-enamide] | 109% |
| CC(C)NC(=O)C(C#N)=Cc1ccc(C#N)cc1 [9-M11, 2-cyano-3-(4-cyanophenyl)-N-(propan-2-yl)prop-2-enamide] | 123% |
| CCc1oc2ccccc2c1C=C(C#N)C(=O)NC1CC1 [9-M12, 2-cyano-N-cyclopropyl-3-(2-ethyl-1-benzofuran-3-yl)prop-2-enamide] | 74.5% |
| COc1c(Cl)cc(Cl)cc1C=C(C#N)C(N)=O [9-M13, 2-cyano-3-(3,5-dichloro-2-methoxyphenyl)prop-2-enamide] | 137% |
| N#CC(=Cc1cnc(-c2ccccc2)nc1)C(=O)NCc1ccco1 [9-M14, 2-cyano-N-[(furan-2-yl)methyl]-3-(2-phenylpyrimidin-5-yl)prop-2-enamide] | 143% |
| N#CC(=Cc1ccccc1)C(=O)NC1CC1 [9-M15, 2-cyano-N-cyclopropyl-3-phenylprop-2-enamide] | 128% |
| C=CCNC(=O)C(C#N)=Cc1cnn(-c2ccc(Cl)cc2)c1 [9-M16, 3-[1-(4-chlorophenyl)-1H-pyrazol-4-yl]-2-cyano-N-(prop-2-en-1-yl)prop-2-enamide] | 115% |
| COCCNC(=O)C(C#N)=Cc1sccc1C [9-M17, 2-cyano-N-(2-methoxyethyl)-3-(3-methylthiophen-2-yl)prop-2-enamide] | 131% |
| Cc1cnc(-c2cccc(NC(=O)C(C#N)=Cc3ccco3)c2)o1 [9-M18, 2-cyano-3-(furan-2-yl)-N-[3-(5-methyl-1,3-oxazol-2-yl)phenyl]prop-2-enamide] | 116% |
| Cc1ccc(NC(=O)C(C#N)=Cc2ccsc2)c(C)c1 [9-M19, 2-cyano-N-(2,4-dimethylphenyl)-3-(thiophen-3-yl)prop-2-enamide] | 102% |
| Cc1nn(C)c(C)c1C=C(C#N)C(=O)Nc1cccc(Cl)c1C [9-M20, N-(3-chloro-2-methylphenyl)-2-cyano-3-(1,3,5-trimethyl-1H-pyrazol-4-yl)prop-2-enamide] | 111% |
| N#CC(=Cc1ccccc1OC(F)F)C(=O)Nc1ccccc1Cl [9-M21, N-(2-chlorophenyl)-2-cyano-3-[2-(difluoromethoxy)phenyl]prop-2-enamide] | 119% |
| N#CC(=Cc1cccs1)C(=O)Nc1cccc2ccccc12 [9-M22, 2-cyano-N-(naphthalen-1-yl)-3-(thiophen-2-yl)prop-2-enamide] | 100% |
| Cc1ccoc1C=C(C#N)C(=O)NCCc1ccccc1 [9-N03, 2-cyano-3-(3-methylfuran-2-yl)-N-(2-phenylethyl)prop-2-enamide] | 93.9% |
| CC(NC(=O)C(C#N)=Cc1cccc(Cl)c1Cl)c1ccccc1 (stereo not shown) [9-N04, 2-cyano-3-(2,3-dichlorophenyl)-N-(1-phenylethyl)prop-2-enamide] | 3.94% |
| N#CC(=Cc1ccc(Cl)c([N+](=O)[O-])c1)C(=O)N1CCCC1 [9-N05, 3-(4-chloro-3-nitrophenyl)-2-(pyrrolidine-1-carbonyl)prop-2-enenitrile] | 5.4% |
| N#CC(C(=O)NC1CCCCC1)=C1N=C(N)c2ccccc21 [9-N06, 2-(3-amino-1H-isoindol-1-ylidene)-2-cyano-N-cyclohexylacetamide] | 80.2% |
| Cc1cc(C=C(C#N)C(=O)Nc2cn[nH]c2)c(C)n1-c1ccc(F)cc1 [9-N07, 2-cyano-3-[1-(4-fluorophenyl)-2,5-dimethyl-1H-pyrrol-3-yl]-N-(1H-pyrazol-4-yl)prop-2-enamide] | 95.1% |
| N#CC(=Cc1c[nH]c2ccccc12)C(=O)Nc1cccc2ncccc12 [9-N08, 2-cyano-3-(1H-indol-3-yl)-N-(quinolin-5-yl)prop-2-enamide] | 101% |
| Cc1cc(CNC(=O)C(C#N)=Cc2ccco2)ccc1N(C)C [9-N09, 2-cyano-N-{[4-(dimethylamino)-3-methylphenyl]methyl}-3-(furan-2-yl)prop-2-enamide] | 113% |
| N#CC(=Cc1ccc(O)cc1)C(=O)NCc1ccco1 [9-N10, 2-cyano-N-[(furan-2-yl)methyl]-3-(4-hydroxyphenyl)prop-2-enamide] | 103% |
| N#CC(=Cc1ccc2ccccc2c1)C(=O)NCc1ccccc1 [9-N11, N-benzyl-2-cyano-3-(naphthalen-2-yl)prop-2-enamide] | 123% |
| COc1cc(C=C(C#N)C(=O)NC(C)C)sn1 [9-N12, 2-cyano-3-(3-methoxy-1,2-thiazol-5-yl)-N-(propan-2-yl)prop-2-enamide] | 115% |
| Cc1ccc(C)c(C=C(C#N)C(=O)Nc2nccs2)c1 [9-N13, 2-cyano-3-(2,5-dimethylphenyl)-N-(1,3-thiazol-2-yl)prop-2-enamide] | 126% |

| Compound | viability at 48 h, 25 µM |
| --- | --- |
| CCCNC(=O)C(C#N)=Cc1cnc2c(C)cccn12 [9-N14, 2-cyano-3-{8-methylimidazo[1,2-a]pyridin-3-yl}-N-propylprop-2-enamide] | 120% |
| Cc1c(C=C(C#N)C(=O)Nc2cnc3ccccc3c2)cc(C#N)n1C [9-N15, 2-cyano-3-(5-cyano-1,2-dimethyl-1H-pyrrol-3-yl)-N-(quinolin-3-yl)prop-2-enamide] | 111% |
| COc1ccc(-n2c(C)cc(C=C(C#N)C(=O)N(C)OC)c2C)cc1 [9-N16, 2-cyano-N-methoxy-3-[1-(4-methoxyphenyl)-2,5-dimethyl-1H-pyrrol-3-yl]-N-methylprop-2-enamide] | 88.4% |
| N#CC(=Cc1cccc(F)c1)C(=O)Nc1ccc(SC(F)F)cc1 [9-N17, 2-cyano-N-{4-[(difluoromethyl)sulfanyl]phenyl}-3-(3-fluorophenyl)prop-2-enamide] | 103% |
| N#CC(=Cc1csc(-c2ccsc2)n1)C(=O)NC1CC1 [9-N18, 2-cyano-N-cyclopropyl-3-[2-(thiophen-3-yl)-1,3-thiazol-4-yl]prop-2-enamide] | 110% |
| Cc1cn2c(C=C(C#N)C(=O)Nc3c(C)cccc3C)c(C)nc2s1 [9-N19, 2-cyano-3-{2,6-dimethylimidazo[2,1-b][1,3]thiazol-5-yl}-N-(2,6-dimethylphenyl)prop-2-enamide] | 94.4% |
| CC(C)Oc1ccccc1C=C(C#N)C(=O)Nc1ccccc1Cl [9-N20, N-(2-chlorophenyl)-2-cyano-3-[2-(propan-2-yloxy)phenyl]prop-2-enamide] | 104% |
| Cc1ccc(C=C(C#N)C(=O)Nc2c(Cl)cccc2Cl)o1 [9-N21, 2-cyano-N-(2,6-dichlorophenyl)-3-(5-methylfuran-2-yl)prop-2-enamide] | 108% |
| N#C/C(C(=O)Nc1ccc(C(F)(F)F)cc1)=C(/O)C1CC1 [9-N22, (2Z)-2-cyano-3-cyclopropyl-3-hydroxy-N-[4-(trifluoromethyl)phenyl]prop-2-enamide] | 82.6% |
| N#CC(=Cc1cccc2ccccc12)C(=O)NC1CC1 [9-O03, 2-cyano-N-cyclopropyl-3-(naphthalen-1-yl)prop-2-enamide] | 116% |
| CN(C)c1ccc(C=C(C#N)C(N)=O)cc1 [9-O04, 2-cyano-3-[4-(dimethylamino)phenyl]prop-2-enamide] | 118% |
| N#CC(=Cc1ccsc1)C(=O)Nc1ccccc1Cl [9-O05, N-(2-chlorophenyl)-2-cyano-3-(thiophen-3-yl)prop-2-enamide] | 150% |
| CCNC(=O)C(C#N)=Cc1c(N2CCOCC2)nc2ccccn2c1=O [9-O06, 2-cyano-N-ethyl-3-[2-(morpholin-4-yl)-4-oxo-4H-pyrido[1,2-a]pyrimidin-3-yl]prop-2-enamide] | 137% |
| CCCCNC(=O)C(C#N)=Cc1ccc(Cl)cc1Cl [9-O07, N-butyl-2-cyano-3-(2,4-dichlorophenyl)prop-2-enamide] | 69% |
| N#CC(=Cc1cc2ccccc2o1)C(=O)NCc1ccco1 [9-O08, 3-(1-benzofuran-2-yl)-2-cyano-N-[(furan-2-yl)methyl]prop-2-enamide] | 114% |
| CCCCNC(=O)C(C#N)=Cc1c(Cl)nc2ccccn12 [9-O09, N-butyl-3-{2-chloroimidazo[1,2-a]pyridin-3-yl}-2-cyanoprop-2-enamide] | 129% |
| N#CC(=Cc1ccc(N2CCOCC2)cc1)C(=O)NCC1CCCO1 (stereo not shown) [9-O10, 2-cyano-3-[4-(morpholin-4-yl)phenyl]-N-[(oxolan-2-yl)methyl]prop-2-enamide] | 120% |
| Cc1ccc(C=C(C#N)C(=O)NC(C)C)s1 [9-O11, 2-cyano-3-(5-methylthiophen-2-yl)-N-(propan-2-yl)prop-2-enamide] | 139% |
| COc1ccc(C=C(C#N)C(=O)Nc2ccc(C)cc2)cc1O [9-O12, 2-cyano-3-(3-hydroxy-4-methoxyphenyl)-N-(4-methylphenyl)prop-2-enamide] | 109% |
| CC1=C(C#N)C(=O)N(C2CCS(=O)(=O)C2)C(=O)C1=Cc1ccco1 (stereo not shown) [9-O13, 1-(1,1-dioxo-1lambda6-thiolan-3-yl)-5-[(furan-2-yl)methylidene]-4-methyl-2,6-dioxo-1,2,5,6-tetrahydropyridine-3-carbonitrile] | 99% |
| N#CC(=Cc1cnn(Cc2ccccc2)c1)C(=O)NC1CCCC1 [9-O14, 3-(1-benzyl-1H-pyrazol-4-yl)-2-cyano-N-cyclopentylprop-2-enamide] | 80.2% |
| CCc1cccc(CC)c1NC(=O)C(C#N)=Cc1ccc(C#N)cc1 [9-O15, 2-cyano-3-(4-cyanophenyl)-N-(2,6-diethylphenyl)prop-2-enamide] | 36.5% |
| N#CC(=Cc1cccc(O)c1)C(=O)Nc1ccccc1C(=O)O [9-O16, 2-[2-cyano-3-(3-hydroxyphenyl)prop-2-enamido]benzoic acid] | 125% |
| N#CC(=Cc1ccc(C#N)cc1)C(=O)Nc1ccccc1Cl [9-O17, N-(2-chlorophenyl)-2-cyano-3-(4-cyanophenyl)prop-2-enamide] | 131% |
